Experimental data published in paper PMC9926234, “Iterative computational design and crystallographic screening identifies potent inhibitors targeting the Nsp3 macrodomain of SARS-CoV-2” (Proceedings of the National Academy of Sciences of the …, 2023).
Several values for one entry are separate records, joined by “and”; a condition that tells them apart may be missing. Equal values may be shown once. Read-outs that look alike come from different tables or passages of the source.

Experiments:
SARS-CoV-2 NSP3 Mac1 [1] = molecular target: T1, SARS-CoV-2 NSP3 Mac1 (Severe acute respiratory syndrome coronavirus 2, UniProt P0DTD1); format: binding; conditions: for Refined occupancy: ligand occupancy after refinement (phenix.refine)
SARS-CoV-2 NSP3 Mac1 [2] = molecular target: T1, SARS-CoV-2 NSP3 Mac1; format: binding; set-up: contains a conserved macrodomain enzyme (Mac1); conditions: for Spearman est (compound concentration vs apparent Tm): DSF dose responsiveness, 1 µM nsp3 mac1, adj p given
How it was run: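 ΔTma values are thermal shifts relative to a co-located DMSO-only control, read with 5 µM Fluorescent Yellow dye. Each compound was tested in triplicate over seven concentrations (two-fold steps, top 1,000 or 100 μM). Spearman correlation of concentration versus ΔTma tested whether the shift was dose-responsive.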

[3] = overall hit flag: binding in crystallographic soaking or the HTRF-based binding assay
[4] = maximal thermal upshift vs DMSO control
[5] = PanDDA 1-BDC value of the event, crystal soak, compound concentration 100 mM, per dataset
[6] = PanDDA event map, 1 minus background density correction, crystal soaking of Mac1
[7] = crystal soak, compound concentration 100 mM, per dataset
[8] = PanDDA 1-BDC (background density correction) of the event, crystal soak 100 mM, PanDDA run dmso_34
[9] = crystal soak, compound concentration 100 mM, PanDDA run dmso_34, series docking_lead-like_1
[10] = ligand modeled in the crystal structure, crystal soak 100 mM, PanDDA run dmso_34
[11] = ligand modeled in the crystal structure, crystal soak, compound concentration 100 mM, per dataset
[12] = true hit = binding in crystallographic soaking or the HTRF-based binding assay
[13] = ligand modeled from this dataset, compound concentration 100 mM

Row | SMILES | HIT* (SARS-CoV-2 NSP3 Mac1 [1]; [3]) | DSF max dTma (SARS-CoV-2 NSP3 Mac1 [2]; [4]) [°C] | 1-BDC (SARS-CoV-2 NSP3 Mac1 [1]; [6]) | Refined occupancy (SARS-CoV-2 NSP3 Mac1 [1]; crystal soaking of Mac1) | Spearman est (compound concentration vs apparent Tm) (SARS-CoV-2 NSP3 Mac1 [2]) | 1-BDC (SARS-CoV-2 NSP3 Mac1 [1]; [8]) | PanDDA hit? (SARS-CoV-2 NSP3 Mac1 [1]; [9]) | Modeled? (SARS-CoV-2 NSP3 Mac1 [1]; [10]) | other results
1 | Cc1nc(Cn2cnc3c(N)nc(N)nc32)cs1 [Z8569] | Y | 0.53 |  |  |  |  |  |  | 
2 | Nc1nc(N)c2ncn(Cc3csc(Cl)n3)c2n1 [Z8572] | Y | 1.1 |  |  |  |  |  |  | 
3 | Nc1nc(N)c2ncn(Cc3csc(C4CC4)n3)c2n1 [Z8585] | Y | 1.3 |  |  |  |  |  |  | 
4 | O=C1CCCN1CCSc1ncnc2[nH]cnc12 [Z9920] | Y | 0.95 |  |  |  |  |  |  | 
5 | Cc1ccc(-c2nc(Cn3cnc4c(N)nc(N)nc43)cs2)o1 [Z4718398580] | Y | 0.71 | 0.45 | 60 | 0.74 |  |  |  | 1-BDC (SARS-CoV-2 NSP3 Mac1 [1]; [5]): 0.28; 1-BDC (SARS-CoV-2 NSP3 Mac1 [1]; PanDDA event map, 1-BDC of the hit dataset, crystal soak, compound concentration 100 mM, listed as Z8580): 0.35 and 0.45; PanDDA hit? (SARS-CoV-2 NSP3 Mac1 [1]; [7]): TRUE; Modeled? (SARS-CoV-2 NSP3 Mac1 [1]; ligand modeled from this dataset, crystal soak, compound concentration 100 mM): TRUE
6 | N#Cc1ccc(OCCn2cnc3c(N)ncnc32)cc1 [ZINC000043461211] | Y | 0.45 | 0.31 | 62 | 0.26 | 0.31 | TRUE | TRUE | 
7 | Nc1ncnc2c1ncn2Cc1cccc(C(F)(F)F)c1 [ZINC000110510893] | Y | 0.5 | 0.35 | 70 | 0.5 | 0.35 | TRUE | TRUE | 
8 | Nc1ncnc(N2CCC(Oc3ccncc3)C2)c1Cl (stereo not shown) [ZINC000302059710] | Y | 0 | 0.13 | 26 | −0.85 |  |  |  | 1-BDC (SARS-CoV-2 NSP3 Mac1 [1]; PanDDA event map background density correction, crystal soak, Compound_concentration 100 mM, PanDDA run dmso_34): 0.13; PanDDA hit? (SARS-CoV-2 NSP3 Mac1 [1]; crystal soak, Compound_concentration 100 mM, Echo dispense 40 nl, PanDDA run dmso_34): TRUE; Modeled? (SARS-CoV-2 NSP3 Mac1 [1]; ligand modeled in crystal structure, crystal soak, Compound_concentration 100 mM, PanDDA run dmso_34): TRUE
9 | Nc1ncnc2c1ncn2Cc1ccc(Cl)cn1 [ZINC000559260078] | Y | 0.98 | 0.15 | 30 | 0.88 | 0.15 | TRUE | TRUE | 
10 | Cc1ccc([C@@H]2C[C@@H](C)CCN2C(=O)c2ncnc3[nH]ccc23)o1 [ZINC000611664196] |  |  | 0.05 | 10 | −0.75 |  |  |  | 1-BDC (SARS-CoV-2 NSP3 Mac1 [1]; [5]): 0.05; PanDDA hit? (SARS-CoV-2 NSP3 Mac1 [1]; [7]): TRUE; Modeled? (SARS-CoV-2 NSP3 Mac1 [1]; [11]): TRUE; HIT* (SARS-CoV-2 NSP3 Mac1 [1]; [12]): Y; DSF max dTma (SARS-CoV-2 NSP3 Mac1 [2]; maximal thermal upshift): 0.14 ˚C
11 | Nc1ncnc2c1ncn2Cc1cc(-c2ccco2)on1 [ZINC000681764827] | Y | 0.63 | 0.16 | 50 | 0.38 | 0.16 | TRUE | TRUE | 
12 | O=C(c1ncnc2[nH]ccc12)N1CC=CC12CCCCC2 [ZINC000827900828] | Y | 0.93 | 0.18 | 36 | −0.37 | 0.18 | TRUE | TRUE | 
13 | C[C@H]1CN(C(=O)c2cccc3[nH]c(=O)oc23)C[C@@H]1C(=O)O [ZINC000833624464] |  |  |  | 16 | −0.44 |  |  |  | 1-BDC (PanDDA) (SARS-CoV-2 NSP3 Mac1 [1]; [6]): 0.08; Modeled? (SARS-CoV-2 NSP3 Mac1 [1]; [13]): TRUE; HIT* (SARS-CoV-2 NSP3 Mac1 [1]; [12]): Y; DSF max dTma (SARS-CoV-2 NSP3 Mac1 [2]; maximal thermal upshift): 0.3 ˚C
14 | Cc1nnc(CNc2cnc(N)c(Cl)n2)n1C1CC1 [ZINC000893101964] |  |  | 0.04 | 8 | −0.12 |  |  |  | 1-BDC (SARS-CoV-2 NSP3 Mac1 [1]; [5]): 0.04; PanDDA hit? (SARS-CoV-2 NSP3 Mac1 [1]; [7]): TRUE; Modeled? (SARS-CoV-2 NSP3 Mac1 [1]; [11]): TRUE; HIT* (SARS-CoV-2 NSP3 Mac1 [1]; [12]): Y; DSF max dTma (SARS-CoV-2 NSP3 Mac1 [2]; maximal thermal upshift): 0.12 ˚C
15 | CC(CSc1nnc2[nH]cnn12)c1ccccc1 (stereo not shown) [ZINC000920153280] | Y | 0 | 0.2 | 40 | −0.66 | 0.2 | TRUE | TRUE | 
16 | Cc1noc(-c2ccnc(-c3ccnc4[nH]ccc34)c2)n1 [ZINC001240411747] |  |  |  | 14 | −0.16 |  |  |  | 1-BDC (PanDDA) (SARS-CoV-2 NSP3 Mac1 [1]; [6]): 0.07; Modeled? (SARS-CoV-2 NSP3 Mac1 [1]; [13]): TRUE; HIT* (SARS-CoV-2 NSP3 Mac1 [1]; [12]): Y; DSF max dTma (SARS-CoV-2 NSP3 Mac1 [2]; maximal thermal upshift): 0.04 ˚C
17 | Cc1cc(S(=O)(=O)N2CCC[C@H](C(N)=O)C2)cnc1N [ZINC001364774273] |  |  | 0.1 | 20 | 0.3 |  |  |  | HIT* (SARS-CoV-2 NSP3 Mac1 [1]; [12]): Y; DSF max dTma (SARS-CoV-2 NSP3 Mac1 [2]; maximal thermal upshift): 0.21 ˚C
